Earlier results on two compounds are cited in US6562757B1, “Plant-protection treatment of plants and compositions which can be used for this purpose” (Cerexagri S.A., priority 1999, dated 2003).

Structures are written as SMILES.

The conditions of the series: pH 7.

Take `[Cu+2].[OH-].[OH-]` [copper hydroxide]: the “amount of soluble aqueous copper (Cu2+(aq)) released” value was 1 to 10 mg/L. For `[Cl-].[Cu+2].[Cu+2].[OH-].[OH-].[OH-]` [copper oxychloride], the “amount of soluble aqueous copper (Cu2+(aq)) released” value is 1 to 10 mg/L.
